{
  "source": "patent US11667649B2",
  "about": "“Heteroaromatic macrocyclic ether chemotherapeutic agents” (Nuvalent, Inc., priority 2020, dated 2023)",
  "system": "TPM3-NTRK1-wt IC50 / primary target (e.g. CD74-ROS1-wt) IC50, Ba/F3 cells",
  "assay": "Cell assay TRKA selectivity (TRKA potency divided by primary target potency)",
  "format": "cell-based",
  "conditions": "for TPM3-NTRK1-wt/CD74-ROS1-G2032R: TRKA selectivity ratio: TPM3-NTRK1-wt IC50 / CD74-ROS1-G2032R IC50, Ba/F3 cells; for TPM3-NTRK1-wt/CD74-ROS1-wt: TRKA selectivity ratio: TPM3-NTRK1-wt IC50 / CD74-ROS1-wt IC50, Ba/F3 cells; for TPM3-NTRK1-wt/EML4-ALK-L1196M-G1202R: TRKA selectivity ratio: TPM3-NTRK1-wt IC50 / EML4-ALK-L1196M-G1202R IC50, Ba/F3 cells; for TPM3-NTRK1-wt/EML4-ALK-wt: TRKA selectivity ratio: TPM3-NTRK1-wt IC50 / EML4-ALK-wt IC50, Ba/F3 cells",
  "how_it_was_run": "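Ratio of TRKA to primary-target cellular IC50 (e.g. TPM3-NTRK1-wt/CD74-ROS1-wt), grouped into bins A >30, B >10, C ≥1, D <1. Each IC50 came from engineered Ba/F3 fusion lines grown without IL-3, dosed for 72 h and read as CellTiter-Glo luminescence, with a four-parameter logistic fit.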",
  "data": [
    {"smiles": "C[C@H]1Oc2cc(cnc2N)-c2c(C#N)nn(C)c2Cc2cc(Cl)nn2-c2ccc(F)cc21", "note": "[Example 103, (19R)-22-amino-10-chloro-16-fluoro-5,19-dimethyl-20-oxa-4,5,11,12,23-pentaazapentacyclo[19.3.1.0^2,^6.0^8,^12.0^13,^18]pentacosa-1(24),2(6),3,8,10,13,15,17,21(25),22-decaene-3-carbonitrile]", "values": [
      {"measurement": "TPM3-NTRK1-wt/CD74-ROS1-G2032R", "result": "A (bin A for very high selectivity, ratio>30-fold)"},
      {"measurement": "TPM3-NTRK1-wt/CD74-ROS1-wt", "result": "A (bin A for very high selectivity, ratio>30-fold)"},
      {"measurement": "TPM3-NTRK1-wt/EML4-ALK-L1196M-G1202R", "result": "B (bin B for high selectivity, ratio>10-fold)"},
      {"measurement": "TPM3-NTRK1-wt/EML4-ALK-wt", "result": "A (bin A for very high selectivity, ratio>30-fold)"}
    ]},
    {"smiles": "C[C@H]1Oc2cc(cnc2N)-c2c(C#N)nn(C)c2Cc2cc(C(F)(F)F)nn2-c2ccc(F)cc21", "note": "[Example 104, (19R)-22-amino-16-fluoro-5,19-dimethyl-10-(trifluoromethyl)-20-oxa-4,5,11,12,23-pentaazapentacyclo[19.3.1.0^2,^6.0^8,^12.0^13,^18]pentacosa-1(24),2(6),3,8,10,13,15,17,21(25),22-decaene-3-carbonitrile]", "values": [
      {"measurement": "TPM3-NTRK1-wt/CD74-ROS1-G2032R", "result": "A (bin A for very high selectivity, ratio>30-fold)"},
      {"measurement": "TPM3-NTRK1-wt/CD74-ROS1-wt", "result": "A (bin A for very high selectivity, ratio>30-fold)"},
      {"measurement": "TPM3-NTRK1-wt/EML4-ALK-L1196M-G1202R", "result": "C (bin C for moderate selectivity, ratio≥1)"},
      {"measurement": "TPM3-NTRK1-wt/EML4-ALK-wt", "result": "A (bin A for very high selectivity, ratio>30-fold)"}
    ]},
    {"smiles": "C[C@H]1Oc2cc(cnc2N)-c2c(C#N)nn(C)c2Cc2cc(F)cnc2-c2ccc(F)cc21", "note": "[Example 105, (20R)-23-amino-10,17-difluoro-5,20-dimethyl-21-oxa-4,5,12,24-tetraazapentacyclo[20.3.1.0^2,^6.0^8,^13.0^14,^19]hexacosa-1(25),2(6),3,8(13),9,11,14,16,18,22(26),23-undecaene-3-carbonitrile]", "values": [
      {"measurement": "TPM3-NTRK1-wt/CD74-ROS1-G2032R", "result": "A (bin A for very high selectivity, ratio>30-fold)"},
      {"measurement": "TPM3-NTRK1-wt/CD74-ROS1-wt", "result": "A (bin A for very high selectivity, ratio>30-fold)"},
      {"measurement": "TPM3-NTRK1-wt/EML4-ALK-L1196M-G1202R", "result": "B (bin B for high selectivity, ratio>10-fold)"},
      {"measurement": "TPM3-NTRK1-wt/EML4-ALK-wt", "result": "A (bin A for very high selectivity, ratio>30-fold)"}
    ]},
    {"smiles": "C[C@H]1Oc2cc(cnc2N)-c2c(nnn2CC2CC2)Cc2cc(F)cnc2-c2ccc(F)cc21", "note": "[Example 106, (20R)-3-(cyclopropylmethyl)-10,17-difluoro-20-methyl-21-oxa-3,4,5,12,24-pentaazapentacyclo[20.3.1.0^2,^6.0^8,^13.0^14,^19]hexacosa-1(25),2(6),4,8(13),9,11,14,16,18,22(26),23-undecaen-23-amine]", "values": [
      {"measurement": "TPM3-NTRK1-wt/CD74-ROS1-G2032R", "result": "A (bin A for very high selectivity, ratio>30-fold)"},
      {"measurement": "TPM3-NTRK1-wt/CD74-ROS1-wt", "result": "A (bin A for very high selectivity, ratio>30-fold)"},
      {"measurement": "TPM3-NTRK1-wt/EML4-ALK-L1196M-G1202R", "result": "B (bin B for high selectivity, ratio>10-fold)"},
      {"measurement": "TPM3-NTRK1-wt/EML4-ALK-wt", "result": "A (bin A for very high selectivity, ratio>30-fold)"}
    ]},
    {"smiles": "CCn1nnc2c1-c1cnc(N)c(c1)O[C@H](C)c1cc(F)ccc1-n1nc(C(F)(F)F)cc1C2", "note": "[Example 107, (19R)-3-ethyl-16-fluoro-19-methyl-10-(trifluoromethyl)-20-oxa-3,4,5,11,12,23-hexaazapentacyclo[19.3.1.0^2,^6.0^8,^12.0^13,^18]pentacosa-1(24),2(6),4,8,10,13,15,17,21(25),22-decaen-22-amine]", "values": [
      {"measurement": "TPM3-NTRK1-wt/CD74-ROS1-G2032R", "result": "A (bin A for very high selectivity, ratio>30-fold)"},
      {"measurement": "TPM3-NTRK1-wt/CD74-ROS1-wt", "result": "A (bin A for very high selectivity, ratio>30-fold)"},
      {"measurement": "TPM3-NTRK1-wt/EML4-ALK-L1196M-G1202R", "result": "C (bin C for moderate selectivity, ratio≥1)"},
      {"measurement": "TPM3-NTRK1-wt/EML4-ALK-wt", "result": "C (bin C for moderate selectivity, ratio≥1)"}
    ]},
    {"smiles": "C[C@H]1Oc2cc(cnc2N)-c2c(nnn2CC2CC2)Cc2cc(Cl)nn2-c2ccc(F)cc21", "note": "[Example 108, (19R)-10-chloro-3-(cyclopropylmethyl)-16-fluoro-19-methyl-20-oxa-3,4,5,11,12,23-hexaazapentacyclo[19.3.1.0^2,^6.0^8,^12.0^13,^18]pentacosa-1(24),2(6),4,8,10,13,15,17,21(25),22-decaen-22-amine]", "values": [
      {"measurement": "TPM3-NTRK1-wt/CD74-ROS1-G2032R", "result": "A (bin A for very high selectivity, ratio>30-fold)"},
      {"measurement": "TPM3-NTRK1-wt/CD74-ROS1-wt", "result": "A (bin A for very high selectivity, ratio>30-fold)"},
      {"measurement": "TPM3-NTRK1-wt/EML4-ALK-L1196M-G1202R", "result": "B (bin B for high selectivity, ratio>10-fold)"},
      {"measurement": "TPM3-NTRK1-wt/EML4-ALK-wt", "result": "A (bin A for very high selectivity, ratio>30-fold)"}
    ]},
    {"smiles": "Cc1cc2n(n1)-c1ccc(F)cc1[C@@H](C)Oc1cc(cnc1N)-c1c(cnn1CC1CC1)C2", "note": "[Example 109, (19R)-3-(cyclopropylmethyl)-16-fluoro-10,19-dimethyl-20-oxa-3,4,11,12,23-pentaazapentacyclo[19.3.1.0^2,^6.0^8,^12.0^13,^18]pentacosa-1(24),2(6),4,8,10,13,15,17,21(25),22-decaen-22-amine]", "values": [
      {"measurement": "TPM3-NTRK1-wt/CD74-ROS1-G2032R", "result": "A (bin A for very high selectivity, ratio>30-fold)"},
      {"measurement": "TPM3-NTRK1-wt/CD74-ROS1-wt", "result": "A (bin A for very high selectivity, ratio>30-fold)"},
      {"measurement": "TPM3-NTRK1-wt/EML4-ALK-L1196M-G1202R", "result": "A (bin A for very high selectivity, ratio>30-fold)"},
      {"measurement": "TPM3-NTRK1-wt/EML4-ALK-wt", "result": "A (bin A for very high selectivity, ratio>30-fold)"}
    ]},
    {"smiles": "Nc1ncc2cc1OCc1cc(F)ccc1-n1nc(Cl)cc1Cc1nnn(CC3CC3)c1-2", "note": "[Example 110, 10-chloro-3-(cyclopropylmethyl)-16-fluoro-20-oxa-3,4,5,11,12,23-hexaazapentacyclo[19.3.1.0^2,^6.0^8,^12.0^13,^18]pentacosa-1(24),2(6),4,8,10,13,15,17,21(25),22-decaen-22-amine]", "values": [
      {"measurement": "TPM3-NTRK1-wt/CD74-ROS1-G2032R", "result": "A (bin A for very high selectivity, ratio>30-fold)"},
      {"measurement": "TPM3-NTRK1-wt/CD74-ROS1-wt", "result": "A (bin A for very high selectivity, ratio>30-fold)"},
      {"measurement": "TPM3-NTRK1-wt/EML4-ALK-L1196M-G1202R", "result": "A (bin A for very high selectivity, ratio>30-fold)"},
      {"measurement": "TPM3-NTRK1-wt/EML4-ALK-wt", "result": "A (bin A for very high selectivity, ratio>30-fold)"}
    ]},
    {"smiles": "C[C@H]1Oc2cc(cnc2N)-c2c(nn(C)c2C#N)Cc2cn(C)nc2-c2ccc(F)cc21", "note": "[Example 111, (19R)-22-amino-16-fluoro-4,10,19-trimethyl-20-oxa-4,5,10,11,23-pentaazapentacyclo[19.3.1.0^2,^6.0^8,^12.0^13,^18]pentacosa-1(24),2,5,8,11,13,15,17,21(25),22-decaene-3-carbonitrile]", "values": [
      {"measurement": "TPM3-NTRK1-wt/CD74-ROS1-G2032R", "result": "B (bin B for high selectivity, ratio>10-fold)"},
      {"measurement": "TPM3-NTRK1-wt/CD74-ROS1-wt", "result": "A (bin A for very high selectivity, ratio>30-fold)"},
      {"measurement": "TPM3-NTRK1-wt/EML4-ALK-L1196M-G1202R", "result": "C (bin C for moderate selectivity, ratio≥1)"},
      {"measurement": "TPM3-NTRK1-wt/EML4-ALK-wt", "result": "A (bin A for very high selectivity, ratio>30-fold)"}
    ]},
    {"smiles": "C[C@H]1Oc2cc(cnc2N)-c2c(nn(C)c2C#N)Cc2cccnc2-c2ccc(F)cc21", "note": "[Example 112, (20R)-23-amino-17-fluoro-4,20-dimethyl-21-oxa-4,5,12,24-tetraazapentacyclo[20.3.1.0^2,^6.0^8,^13.0^14,^19]hexacosa-1(25),2,5,8(13),9,11,14,16,18,22(26),23-undecaene-3-carbonitrile]", "values": [
      {"measurement": "TPM3-NTRK1-wt/CD74-ROS1-G2032R", "result": "C (bin C for moderate selectivity, ratio≥1)"},
      {"measurement": "TPM3-NTRK1-wt/CD74-ROS1-wt", "result": "A (bin A for very high selectivity, ratio>30-fold)"},
      {"measurement": "TPM3-NTRK1-wt/EML4-ALK-L1196M-G1202R", "result": "D (bin D for low selectivity, ratio<1)"},
      {"measurement": "TPM3-NTRK1-wt/EML4-ALK-wt", "result": "A (bin A for very high selectivity, ratio>30-fold)"}
    ]}
  ]
}
